In US11447466B2, “Substituted indole compounds useful as inhibitors of TLR7/8/9” (BRISTOL-MYERS SQUIBB COMPANY, priority 2017, dated 2022):

Tests used:
Format in all cases: cell-based
human TLR7 = biological target: T1, human TLR7 (Homo sapiens, UniProt Q9NYK1); experiment: TLR7 inhibition reporter assay (HEK-Blue SEAP reporter, gardiquimod stimulation); conditions: HEK-Blue cells overexpressing human TLR7, SEAP reporter, gardiquimod 7.5 μM, 22 hour incubation
T1 construct: host or cells: HEK-Blue cells
T1 sequence (Q9NYK1 27-1049): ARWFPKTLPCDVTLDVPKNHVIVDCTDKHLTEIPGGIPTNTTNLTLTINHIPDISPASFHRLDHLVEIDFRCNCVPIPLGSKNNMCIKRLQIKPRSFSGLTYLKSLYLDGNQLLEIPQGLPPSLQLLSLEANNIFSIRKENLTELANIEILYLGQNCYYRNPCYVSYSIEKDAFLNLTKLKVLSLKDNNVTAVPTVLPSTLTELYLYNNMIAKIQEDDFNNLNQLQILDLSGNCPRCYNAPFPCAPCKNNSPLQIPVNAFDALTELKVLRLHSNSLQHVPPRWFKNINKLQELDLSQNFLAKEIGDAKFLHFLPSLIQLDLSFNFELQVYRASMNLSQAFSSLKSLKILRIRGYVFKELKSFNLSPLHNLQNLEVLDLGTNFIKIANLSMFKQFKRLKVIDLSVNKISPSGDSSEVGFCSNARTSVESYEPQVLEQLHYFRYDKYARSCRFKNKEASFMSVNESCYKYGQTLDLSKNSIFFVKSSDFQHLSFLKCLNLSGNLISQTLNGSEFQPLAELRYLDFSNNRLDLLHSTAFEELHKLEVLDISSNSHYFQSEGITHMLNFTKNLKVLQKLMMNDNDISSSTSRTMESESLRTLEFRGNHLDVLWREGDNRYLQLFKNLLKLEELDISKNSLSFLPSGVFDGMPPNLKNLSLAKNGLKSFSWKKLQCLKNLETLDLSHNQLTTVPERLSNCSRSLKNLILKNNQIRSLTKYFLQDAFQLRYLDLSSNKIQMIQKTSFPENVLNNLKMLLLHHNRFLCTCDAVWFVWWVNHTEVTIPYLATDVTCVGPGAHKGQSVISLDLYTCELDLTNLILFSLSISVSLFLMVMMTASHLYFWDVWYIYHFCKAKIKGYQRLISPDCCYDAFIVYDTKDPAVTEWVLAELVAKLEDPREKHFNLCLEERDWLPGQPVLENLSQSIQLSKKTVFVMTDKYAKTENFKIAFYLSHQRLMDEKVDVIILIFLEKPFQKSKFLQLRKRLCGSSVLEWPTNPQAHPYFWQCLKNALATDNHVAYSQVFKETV
Summary of the method: (§1)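 Agonists used: gardiquimod 7.5 μM (TLR7), R848 15.9 μM (TLR8), ODN2006 5 nM (TLR9), added after 30 min room-temperature compound pre-treatment (0.05 nM–50 μM) of receptor-overexpressing HEK-Blue cells. SEAP reporter (NF-κB/AP-1 driven) read after 22 h at 37 °C; inhibition scaled between agonist+DMSO and reference-inhibitor wells.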

human TLR8 = biological target: T2, human TLR8 (Homo sapiens, UniProt Q9NR97); experiment: TLR8 inhibition reporter assay (HEK-Blue SEAP reporter, R848 stimulation); conditions: HEK-Blue cells overexpressing human TLR8, SEAP reporter, R848 15.9 μM, 22 hour incubation
T2 construct: host or cells: HEK-Blue cells
T2 sequence (Q9NR97 27-1041): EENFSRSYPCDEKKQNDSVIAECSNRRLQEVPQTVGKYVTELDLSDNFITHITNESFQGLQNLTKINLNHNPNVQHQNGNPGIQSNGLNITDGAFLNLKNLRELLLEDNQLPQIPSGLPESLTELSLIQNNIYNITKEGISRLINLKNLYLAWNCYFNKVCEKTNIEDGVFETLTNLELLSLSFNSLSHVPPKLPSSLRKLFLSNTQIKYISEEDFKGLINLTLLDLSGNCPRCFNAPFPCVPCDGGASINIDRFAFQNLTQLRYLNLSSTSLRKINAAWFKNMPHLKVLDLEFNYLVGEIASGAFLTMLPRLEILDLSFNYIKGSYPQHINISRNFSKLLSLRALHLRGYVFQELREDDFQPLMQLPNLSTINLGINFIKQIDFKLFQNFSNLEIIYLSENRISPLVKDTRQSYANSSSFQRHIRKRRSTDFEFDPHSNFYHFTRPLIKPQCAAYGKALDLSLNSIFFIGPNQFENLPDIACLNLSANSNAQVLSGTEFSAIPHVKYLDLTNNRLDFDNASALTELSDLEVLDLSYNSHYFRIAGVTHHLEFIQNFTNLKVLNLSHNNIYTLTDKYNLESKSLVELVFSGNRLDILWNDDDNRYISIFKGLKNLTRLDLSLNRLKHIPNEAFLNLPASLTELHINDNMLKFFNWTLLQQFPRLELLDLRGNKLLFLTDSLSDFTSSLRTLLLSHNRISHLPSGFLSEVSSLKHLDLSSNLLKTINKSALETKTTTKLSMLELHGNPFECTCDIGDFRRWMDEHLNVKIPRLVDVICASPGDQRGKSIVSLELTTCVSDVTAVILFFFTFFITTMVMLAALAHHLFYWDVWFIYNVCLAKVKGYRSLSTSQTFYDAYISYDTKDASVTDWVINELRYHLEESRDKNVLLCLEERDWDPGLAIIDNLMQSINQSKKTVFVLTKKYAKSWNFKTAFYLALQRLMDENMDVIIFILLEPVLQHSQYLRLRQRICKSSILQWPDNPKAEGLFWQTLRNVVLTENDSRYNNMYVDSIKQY
Summary of the method: as §1

human TLR9 = biological target: T3, human TLR9 (Homo sapiens, UniProt Q9NR96); experiment: TLR9 inhibition reporter assay (HEK-Blue SEAP reporter, ODN2006 stimulation); conditions: HEK-Blue cells overexpressing human TLR9, SEAP reporter, ODN2006 5 nM, 22 hour incubation
T3 construct: host or cells: HEK-Blue cells
T3 sequence (Q9NR96 26-1032): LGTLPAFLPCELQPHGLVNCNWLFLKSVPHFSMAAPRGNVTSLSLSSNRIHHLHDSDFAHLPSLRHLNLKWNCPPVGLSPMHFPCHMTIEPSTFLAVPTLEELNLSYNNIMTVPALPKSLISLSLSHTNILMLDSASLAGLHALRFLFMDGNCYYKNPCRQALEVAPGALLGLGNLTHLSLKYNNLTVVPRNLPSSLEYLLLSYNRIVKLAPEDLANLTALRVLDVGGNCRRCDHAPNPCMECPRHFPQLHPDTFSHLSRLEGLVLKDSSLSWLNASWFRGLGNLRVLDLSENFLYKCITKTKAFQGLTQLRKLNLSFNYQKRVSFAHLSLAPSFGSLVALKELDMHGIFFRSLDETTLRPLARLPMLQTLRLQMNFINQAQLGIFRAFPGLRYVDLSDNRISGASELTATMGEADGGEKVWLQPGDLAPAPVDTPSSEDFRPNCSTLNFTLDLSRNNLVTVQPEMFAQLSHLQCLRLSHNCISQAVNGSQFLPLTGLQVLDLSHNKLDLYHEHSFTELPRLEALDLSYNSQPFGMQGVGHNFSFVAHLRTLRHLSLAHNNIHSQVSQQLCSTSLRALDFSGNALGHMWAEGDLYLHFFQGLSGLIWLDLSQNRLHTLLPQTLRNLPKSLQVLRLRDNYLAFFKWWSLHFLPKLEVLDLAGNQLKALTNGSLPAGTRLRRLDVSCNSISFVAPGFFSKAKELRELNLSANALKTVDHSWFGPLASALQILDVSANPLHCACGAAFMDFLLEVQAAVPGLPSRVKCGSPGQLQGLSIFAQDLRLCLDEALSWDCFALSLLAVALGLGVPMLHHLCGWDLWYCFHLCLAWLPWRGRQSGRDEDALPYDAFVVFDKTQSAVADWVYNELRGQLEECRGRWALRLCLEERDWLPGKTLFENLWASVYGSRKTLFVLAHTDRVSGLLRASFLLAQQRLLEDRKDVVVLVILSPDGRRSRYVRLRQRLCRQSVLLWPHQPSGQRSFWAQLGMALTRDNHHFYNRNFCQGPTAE
Summary of the method: as §1

Compound | IC50 (human TLR7) [nM] | IC50 (human TLR8) [nM] | IC50 (human TLR9) [µM]
COCCn1cc(-c2[nH]c3ccc(C4CCN(C(=O)CN(C)C)CC4)cc3c2C(C)C)cc(C)c1=O [Example 287, 5-(5-(1-(dimethylglycyl)piperidin-4-yl)-3-isopropyl-1H-indol-2-yl)-1-(2-methoxyethyl)-3-methylpyridin-2(1H)-one] | 7.8 | 8.6 | 18.2
Cc1cc(-c2[nH]c3ccc(C4CCN(C(=O)[C@@H]5C[C@@H](O)CN5C)CC4)cc3c2C(C)C)cn(C)c1=O [Example 289, 5-(5-(1-((2S,4R)-4-hydroxy-1-methylpyrrolidine-2-carbonyl)piperidin-4-yl)-3-isopropyl-1H-indol-2-yl)-1,3-dimethylpyridin-2(1H)-one] | 5.9 | 12.3 | 5.28
Cc1cc(-c2[nH]c3ccc(C4CCN(C(=O)[C@H]5NCC[C@@H]5O)CC4)cc3c2C(C)C)cn(C)c1=O [Example 291, 5-(5-(1-((2S,3S)-3-hydroxypyrrolidine-2-carbonyl)piperidin-4-yl)-3-isopropyl-1H-indol-2-yl)-1,3-dimethylpyridin-2(1H)-one] | 12.3 | 11.2 | 1.42
Cc1cc(-c2[nH]c3ccc(C4CCN(C(=O)CN(C)C)CC4)cc3c2C(C)C)nn(C)c1=O [Example 294, 6-(5-(1-(dimethylglycyl)piperidin-4-yl)-3-isopropyl-1H-indol-2-yl)-2,4-dimethylpyridazin-3(2H)-one] | 12.5 | 16.9 | 3.32
Cc1nc(-c2[nH]c3ccc(C4CCN(C(=O)CN(C)C)CC4)cc3c2C(C)C)cn(C)c1=O [Example 295, 5-(5-(1-(dimethylglycyl)piperidin-4-yl)-3-isopropyl-1H-indol-2-yl)-1,3-dimethylpyrazin-2(1H)-one] | 114 | 61.9 | 9.69
Cc1cc(-c2[nH]c3ccc(C4CCN(C(=O)C(C)(C)N)CC4)cc3c2C(C)C)cn(C)c1=O [Example 296, 5-(5-(1-(2-amino-2-methylpropanoyl)piperidin-4-yl)-3-isopropyl-1H-indol-2-yl)-1,3-dimethylpyridin-2(1H)-one] | 1.1 | 3 | 4.31
CN[C@@H](C)C(=O)N1CCC(c2ccc3[nH]c(-c4cc(C)c(=O)n(C)c4)c(C(C)C)c3c2)CC1 [Example 297, 5-(3-isopropyl-5-(1-(methyl-L-alanyl)piperidin-4-yl)-1H-indol-2-yl)-1,3-dimethylpyridin-2(1H)-one] | 4.4 | 5.5 | 3.99
CNC(C)(C)C(=O)N1CCC(c2ccc3[nH]c(-c4cc(C)c(=O)n(C)c4)c(C(C)C)c3c2)CC1 [Example 298, 5-(3-isopropyl-5-(1-(2-methyl-2-(methylamino)propanoyl)piperidin-4-yl)-1H-indol-2-yl)-1,3-dimethylpyridin-2(1H)-one] | 169 | 148 | 21.3
CN[C@H](C)C(=O)N1CCC(c2ccc3[nH]c(-c4cc(C)c(=O)n(C)c4)c(C(C)C)c3c2)CC1 [Example 299, 5-(3-isopropyl-5-(1-(methyl-D-alanyl)piperidin-4-yl)-1H-indol-2-yl)-1,3-dimethylpyridin-2(1H)-one] | 3.7 | 4.3 | 0.504
Cc1cc(-c2[nH]c3ccc(C4CCN(C(=O)CN5CCCC5=O)CC4)cc3c2C(C)C)cn(C)c1=O [Example 300, 5-(3-isopropyl-5-(1-(2-(2-oxopyrrolidin-1-yl)acetyl)piperidin-4-yl)-1H-indol-2-yl)-1,3-dimethylpyridin-2(1H)-one] | 42.6 | 42.5 | ≥ 50
CC(C)c1c(-c2ccc(=O)n(C)c2)[nH]c2ccc(C3CCN(C(=O)CN(C)C)CC3)cc12 [Example 301, 5-(5-(1-(dimethylglycyl)piperidin-4-yl)-3-isopropyl-1H-indol-2-yl)-1-methylpyridin-2(1H)-one] | 25.7 | 36.5 | 1.83
Cc1c(-c2[nH]c3ccc(C4CCN(C(=O)C(F)(F)F)CC4)cc3c2C(C)C)cn(C)c(=O)c1Cl [Example 302, 3-chloro-5-(3-isopropyl-5-(1-(2,2,2-trifluoroacetyl)piperidin-4-yl)-1H-indol-2-yl)-1,4-dimethylpyridin-2(1H)-one] | 20.4 | 214 | ≥ 50
Cc1cc(-c2[nH]c3ccc(C4CCN(C(=O)CC(C)(C)O)CC4)cc3c2C(C)C)cn(C)c1=O [Example 303, 5-(5-(1-(3-hydroxy-3-methylbutanoyl)piperidin-4-yl)-3-isopropyl-1H-indol-2-yl)-1,3-dimethylpyridin-2(1H)-one] | 9.6 | 49.9 | ≥ 50
Cc1cc(-c2[nH]c3ccc(C4CCN(C(=O)C(C)(C)CO)CC4)cc3c2C(C)C)cn(C)c1=O [Example 304, 5-(5-(1-(3-hydroxy-2,2-dimethylpropanoyl)piperidin-4-yl)-3-isopropyl-1H-indol-2-yl)-1,3-dimethylpyridin-2(1H)-one] | 7.8 | 80 | ≥ 50
